US20250197387A1, “BCL-XL DEGRADERS AND USES THEREOF” (Kymera Therapeutics, Inc., priority 2021, published 2025)
Like-named read-outs stand apart in the source and are kept apart here.

Legend:
Type in all cases: cell-based
Caki-2 cells = test: CTG (CellTiter-Glo) cell viability assay, Caki-2; details: 3 day incubation, read-out: CTG Chempartner - Caki-2 3 day: Average external-IC50
Experimental: Compound-mediated viability effect on MOLT-4 and Caki-2 was quantitatively determined using the CellTiter-Glo® Luminescent Cell Viability Assay kit from Promega (Catalog number G7570) following manufacturer's recommended procedures. Briefly, MOLT-4 and Caki-2 cells were seeded into 384 well plates (Grenier Bio-One, Catalog number 781080) with a density of 10,000 cells per well. Compounds were then added to the assay plate with final top concentration of 10 μM and 1:3 dilution series with total of 9 doses. The final DMSO concentration is normalized to 0.2%. The assay plates were incubated at 37° C., for 3 days under 5% CO2. Then the assay plate was equilibrated at room temperature for 10 minutes. To determine cell viability, 30 uL CellTiter Glo reagent was added to each well and the assay plate was centrifuged at 1000 rpm for 30 second, incubated at room temperature for 10 min, and analyzed by detecting the luminescence using a multimode plate reader (EnVision 2105, PerkinElmer). The data was then analyzed by software Prism 7.0 from GraphPad and the dose response curves are fit using a three-parameter logistic equation to calculate IC50.
The letter codes for MOLT-4 IC50 include: A (<0.1 μM); B (0.1-1.0 μM); C (>1.0-3.0 μM); and D (>3.0 μM). The letter codes for Caki-2 IC50 include: A (<0.1 μM); B (0.1-1.0 μM); C (>1.0-10.0 μM); and D (>10.0 μM).

MOLT-4 cells = test: CTG (CellTiter-Glo) cell viability assay, MOLT-4; details: 3 day incubation, read-out: CTG Cell Viability Assay - MOLT-4 3 day: Average external-IC50
Summary of the method: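 IC50 is from a three-parameter logistic fit of CellTiter-Glo luminescence after 3-day treatment of cells seeded at 10,000 per well. Codes: MOLT-4 A <0.1, B 0.1-1.0, C >1.0-3.0, D >3.0 μM; Caki-2 A <0.1, B 0.1-1.0, C >1.0-10.0, D >10.0 μM.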

BCL-XL = molecular target: T1, BCL-XL (Homo sapiens, UniProt Q07817); test: Bcl-xL ELISA degradation in MOLT-4 cells, 6 h; details: for DC50: read-out: Bcl-xL ELISA in MOLT-4 degradation 6 h: Mean external-Abs DC50
T1 construct: endogenous in cells; host or cells: MOLT-4
Experimental: The letter codes for BCL-XL DC50 include: A (<0.01 μM); B (0.01-0.1 μM); C (>[…]); D (>0.5-1.0 μM); and E (>1.0 μM). The letter codes for Dmax % include A (>75%); B (50 to 75%); C (<50%).

T1 sequence (Q07817 whole entry): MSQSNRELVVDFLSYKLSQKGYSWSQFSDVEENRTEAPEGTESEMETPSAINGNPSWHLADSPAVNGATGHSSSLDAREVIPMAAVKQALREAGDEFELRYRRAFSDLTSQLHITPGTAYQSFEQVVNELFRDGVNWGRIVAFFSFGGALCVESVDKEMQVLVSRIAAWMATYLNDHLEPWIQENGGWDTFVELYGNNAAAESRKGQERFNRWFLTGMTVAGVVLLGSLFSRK

Compound | IC50 (Caki-2 cells; Homo sapiens, 72 h) [nM] | IC50 (MOLT-4 cells; Homo sapiens, MOLT-4, 72 h) [nM] | Dmax (BCL-XL) [%] | DC50 (BCL-XL) [nM] | IC50 (Caki-2 cells) [nM] | IC50 (MOLT-4 cells) [nM] | Bcl-xL ELISA in MOLT-4 degradation 6 h: Average Dmax % (BCL-XL)
C#Cc1ccc(CNC(=O)[C@@H]2C[C@@H](O)CN2C(=O)[C@@H](NC(=O)CCc2ccc(S(=O)(=O)NC(=O)c3nc(N4CCc5cccc(C(=O)Nc6nc7ccccc7s6)c5C4)ccc3-c3cnn(CC(C)C)c3C)cc2)C(C)(C)C)cc1 [I-319] | > 10000 | > 3000 | 50 to 75 | > 1000 | – | – | –
Cc1ncsc1-c1ccc(CNC(=O)[C@@H]2C[C@@H](O)CN2C(=O)[C@@H](NC(=O)CCc2ccc(S(=O)(=O)NC(=O)c3nc(N4CCc5cccc(C(=O)Nc6nc7ccccc7s6)c5C4)ccc3-c3cnn(CC4CCCCC4)c3C)c(F)c2)C(C)(C)C)cc1 [I-320] | > 10000 | 1000 to 3000 | > 75 | 100 to 500 | – | – | –
Cc1ncsc1-c1ccc(CNC(=O)[C@@H]2C[C@@H](O)CN2C(=O)[C@@H](NC(=O)CCc2cccc(S(=O)(=O)NC(=O)c3nc(N4CCc5cccc(C(=O)Nc6nc7ccccc7s6)c5C4)ccc3-c3cnn(CC4CCCCC4)c3C)c2)C(C)(C)C)cc1 [I-321] | – | – | – | 10 to 100 | 1000 to 10000 | < 100 | A (A (>75%))
Cc1cc(C(C(=O)N2C[C@H](O)C[C@H]2C(=O)NCc2ccc(-c3scnc3C)cc2OCCN(C)C2CCN(C(=O)c3nc(N4CCc5cccc(C(=O)Nc6nc7ccccc7s6)c5C4)ccc3-c3cnn(CC4CCCCC4)c3C)CC2)C(C)C)on1 (some centres unmarked) [I-322] | 100 to 1000 | 100 to 1000 | 50 to 75 | 100 to 500 | – | – | –
Cc1ncsc1-c1ccc([C@H](C)NC(=O)[C@@H]2C[C@@H](O)CN2C(=O)[C@@H](NC(=O)C2CCN(c3ccc(S(=O)(=O)NC(=O)c4nc(N5CCc6cccc(C(=O)Nc7nc8ccccc8s7)c6C5)ccc4-c4cccc(N(C)C(C)C)c4C)cc3)CC2)C(C)(C)C)cc1 [I-323] | > 10000 | 100 to 1000 | 50 to 75 | 100 to 500 | – | – | –
Cc1ncsc1-c1ccc([C@H](C)NC(=O)[C@@H]2C[C@@H](O)CN2C(=O)[C@@H](NC(=O)C2CCN(c3ccc(S(=O)(=O)NCc4nc(N5CCc6cccc(C(=O)Nc7nc8ccccc8s7)c6C5)ccc4-c4cnn(CC5CCCCC5)c4C)cc3)CC2)C(C)(C)C)cc1 [I-324] | > 10000 | > 3000 | < 50 | > 1000 | – | – | –
Cc1ncsc1-c1ccc([C@H](C)NC(=O)[C@@H]2C[C@@H](O)CN2C(=O)[C@@H](NC(=O)c2ccc(NC3CCCN(S(=O)(=O)NC(=O)c4nc(N5CCc6cccc(C(=O)Nc7nc8ccccc8s7)c6C5)ccc4-c4cnn(CC5CCCCC5)c4C)C3)cc2)C(C)(C)C)cc1 (some centres unmarked) [I-325] | 1000 to 10000 | < 100 | 50 to 75 | 100 to 500 | – | – | –
C#Cc1ccc(CNC(=O)[C@@H]2C[C@@H](O)CN2C(=O)[C@@H](NC(=O)CCc2ccc(S(=O)(=O)NC(=O)c3nc(N(C)c4cc(C)c(Nc5nc6ccccc6s5)nn4)ccc3-c3cnn(CC(C)C)c3C)cc2)C(C)(C)C)cc1 [I-326] | > 10000 | > 3000 | < 50 | > 1000 | – | – | –
Cc1ncsc1-c1ccc(CNC(=O)[C@@H]2C[C@@H](O)CN2C(=O)[C@@H](NC(=O)COc2ccc(S(=O)(=O)NC(=O)c3nc(N4CCc5cccc(C(=O)Nc6nc7ccccc7s6)c5C4)ccc3-c3cnn(CC4CCCCC4)c3C)cc2)C(C)(C)C)cc1 [I-327] | 1000 to 10000 | < 100 | > 75 | 10 to 100 | – | – | –
Cc1ncsc1-c1ccc([C@H](C)NC(=O)[C@@H]2C[C@@H](O)CN2C(=O)[C@@H](NC(=O)C2CCN(c3ccc(S(=O)(=O)NC(=O)c4nc(N5CCc6cccc(C(=O)Nc7nc8ccccc8s7)c6C5)ccc4-c4cnn(CC5CCCCC5)c4C)cc3F)CC2)C(C)(C)C)cc1 [I-328] | 1000 to 10000 | < 100 | > 75 | 10 to 100 | – | – | –
Cc1ncsc1-c1ccc(CNC(=O)[C@@H]2C[C@@H](O)CN2C(=O)[C@@H](NC(=O)C2CCN(c3ccc(S(=O)(=O)NC(=O)c4nc(N5CCc6cccc(C(=O)Nc7nc8ccccc8s7)c6C5)ccc4-c4cnn(CC5CCCCC5)c4C)cc3F)CC2)C(C)(C)C)cc1 [I-329] | 1000 to 10000 | < 100 | > 75 | 10 to 100 | – | – | –
